Publication PMC5727346 (International Journal for Parasitology: Drugs and Drug …, 2017)
pIC50: −log10 of the molar value.

Molecular target: triosephosphate isomerase from G. lamblia (GlTIM; dGlTIM) (Giardia duodenalis, UniProt P36186, C202A)
Assay: GDH-coupled TIM activity assay after […] h incubation at […] °C
Assay type: biochemical

In the case of `CCN(CC)C(=S)SSC(=S)N(CC)CC` [disulfiram, 1,1′,1″,1‴-[disulfanediylbis(carbonothioylnitrilo)]tetraethane], the pIC50 was 5.18.
